Data from patent US20250326722A1 (SHANGHAI HANSOH BIOMEDICAL CO., LTD., priority 2022, published 2025).

Columns and labels:
[1] = molecular target: PCSK9 secreted by HepG2 cells (Homo sapiens (Human), UniProt Q8NBP7); experiment: Effect on the concentration of PCSK9 secreted by HepG2 cells (ELISA); type: cell-based; settings: 48 hours incubation, read-out: Inhibitory activity on PCSK9, IC50
From the text: • 1. Experimental objective: To detect the inhibitory effect of the compounds on PCSK9. • 2. Experimental instruments and reagents: • 2.1 Instruments:
• CircuLex Human PCSK9 ELISA kit (MBL: CY-8079); • DMEM (Gibco: 31966-021) • FBS (Sigma: S5394) • Compound plate (Thermo: 1353506) • Complete culture medium: DMEM+10% FBS+1×P/S; • Experimental culture medium: DMEM+10% FBS • Cell strain: HepG2 (ATCC: HB-8065)
A self-adhesive seal was applied, the plate was placed on a plate shaker at room temperature, gently shaken, uniformly mixed, and incubated for 1 hour. • 11) The plate was placed on the plate washer, the washing liquid was set to 350 μL per well, and the plate was washed 4 times repeatedly. • 12) 100 μL/well of an HRP-conjugated detection antibody was added, a self-adhesive seal was applied, and the plate was placed on the plate shaker, well mixed uniformly, and incubated for 1 hour. • 13) The plate was placed on the plate washer, the washing liquid was set to 350 μL per well, and the plate was washed 4 times repeatedly. • 14) 100 μL/well of Substrate reagent was added, and the plate was placed in the dark, applied with a self-adhesive seal, placed on the plate shaker, well mixed uniformly, and incubated for 10-20 minutes. • 15) 100 μL/well of Stop solution (1N H2SO4) was added and mixed uniformly. • 16) The optical density (OD) value in each well was measured in sequence at a wavelength of 450 nm by the microplate reader. Detection was carried out within 30 min after the reaction was stopped.
After the OD values were read by the microplate reader, the OD value of the 0-concentration standard in the standard group was subtracted from the OD values of the standards, control group, and samples to obtain the actual OD values for these wells. A standard curve was plotted with Graphpad and the concentration of the sample was calculated. If the dilution was performed during the sample detection, the calculated sample concentration was necessarily multiplied by the corresponding dilution ratio in the final calculation, which was the actual concentration of the sample. Inhibition rate=(actual concentration in control-actual concentration in sample)/actual concentration in control*100. According to the inhibition rates corresponding to the different concentrations, IC50 was derived by Graphpad.

PCSK9 protein = PCSK9 protein (Homo sapiens (Human), UniProt Q8NBP7); experiment: Binding experiment: surface plasmon resonance (SPR) binding to PCSK9 protein
From the text: • 1. Experimental objective: To detect the action of compounds to bind PCSK9 protein by a conventional surface plasmon resonance (SPR) method.

[2] = Pharmacokinetic determination in mice (plasma); type: in vivo, C57BL/6J mice; settings: C57 mice, PO administration, 5 mpk; for AUC(0-inf) / half-life / MRT / Cmax: male, C57BL/6J, mouse, 5 mg/kg; for AUC(0-inf): read-out: Area under the curve AUC0-∞; for half-life: read-out: Half-life t1/2 (converted); for MRT: read-out: Mean residence time MRT; for Cmax: read-out: Plasma concentration Cmax
Experimental: C57BL/6J mice were used as test animals to study the pharmacokinetic behavior of the compounds of the present disclosure in mice (plasma) after oral and intravenous administration.
C57 mice, male, purchased from Shanghai Bk Lab Animal Co., Ltd., with animal production license number (SCXK (Shanghai) 2013-0006 NO.311620400001794).
• Preparation of oral drug: 10% Solutol HS15
10 g of Solutol HS15 solid was weighed, dissolved in 90 mL of pure water, uniformly mixed, stirred, and ultrasonically treated to form a clear solution.
The compound of the present disclosure was weighed and dissolved in this solution, uniformly shaken, and ultrasonically treated for 15 minutes to obtain a colorless clear solution with a concentration of 0.5 mg/mL. • Preparation of intravenous drug: 5% DMSO+10% Solutol HS15+85% PBS […]
3 male C57 mice were fasted overnight and then respectively administered PO at a dose of 5 mg/kg and a volume of 10 mL/kg. […]
Before and after administration of mice, 0.04 mL of blood was collected from the orbit at 0.083 (iv), 0.25, 0.5, 1, 2, 4, 8, and 24 hours, and placed in EDTA-K2 test tubes, which was centrifuged at 6000 rpm at 4° C. for 6 min to separate plasma which was stored at −80° C.; and the […] were fed 4 h after administration.
The final determination results were obtained by using an LCMS/MS method.
The main pharmacokinetic parameters were calculated using WinNonlin 6.1.

Sequence of PCSK9 protein (Q8NBP7 153-692): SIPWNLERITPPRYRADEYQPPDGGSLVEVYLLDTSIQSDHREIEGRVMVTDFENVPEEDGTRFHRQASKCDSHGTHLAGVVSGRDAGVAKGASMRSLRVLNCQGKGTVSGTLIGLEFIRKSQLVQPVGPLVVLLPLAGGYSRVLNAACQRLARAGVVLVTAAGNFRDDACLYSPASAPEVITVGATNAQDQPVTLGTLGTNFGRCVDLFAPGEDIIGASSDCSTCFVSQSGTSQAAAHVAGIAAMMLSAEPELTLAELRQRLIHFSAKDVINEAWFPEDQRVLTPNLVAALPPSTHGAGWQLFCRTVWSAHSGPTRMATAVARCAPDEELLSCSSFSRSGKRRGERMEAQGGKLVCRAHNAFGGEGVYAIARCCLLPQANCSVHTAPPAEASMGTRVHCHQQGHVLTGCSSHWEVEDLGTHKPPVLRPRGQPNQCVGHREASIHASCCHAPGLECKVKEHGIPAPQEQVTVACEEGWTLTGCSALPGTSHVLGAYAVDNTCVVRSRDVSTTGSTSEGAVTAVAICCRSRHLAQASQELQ
Sequence of PCSK9 secreted by HepG2 cells (Q8NBP7 153-692): as above
Sequence of PCSK9 secreted by HepG2 cells (Q8NBP7 31-152 partner): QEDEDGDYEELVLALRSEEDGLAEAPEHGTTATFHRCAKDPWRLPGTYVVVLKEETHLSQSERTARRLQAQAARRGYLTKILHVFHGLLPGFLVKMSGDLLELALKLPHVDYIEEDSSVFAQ

IC50 [1]	Kd (PCSK9 protein)	Time to peak tmax [2]	AUC(0-inf) [2]	half-life [2]	MRT [2]	Cmax [2]	Area under the curve AUC0-∞ [2]	Half-life t1/2 [2]	Mean residence time MRT [2]	Plasma concentration Cmax [2]	SMILES
17600 nM	2.6 nM										O=C1c2c(cccc2C(F)(F)F)CN1c1ccc(N[C@H]2CC[C@H](Nc3nc4cc(F)ccn4n3)C2)nc1 [Example 161]
26400 nM		2 h	34600 ng·h/mL	2.9 h	4.4 h	6310 ng/mL					O=C1c2ncc(F)cc2CN1c1ccc(N[C@H]2CC[C@H](Nc3ncc(C(F)(F)F)nn3)C2)nc1 [Example 153, 3-Fluoro-6-(6-(((1S,3S)-3-((6-(trifluoromethyl)-1,2,4-triazin-3-yl)amino)cyclopentyl)amino)pyridin-3-yl)-5,6-dihydro-7H-pyrrolo[3,4-b]pyridin-7-one]
17300 nM		1 h					24298 ng·h/mL	7.7 h	4.0 h	8545 ng/mL	O=C1c2ncccc2CN1c1ccc(N[C@H]2CC[C@H](Nc3ncc(OCC(F)(F)F)cn3)C2)nc1 [Example 125]
1500 nM		2 h	65500 ng·h/mL	9.6 h	12.1 h	5290 ng/mL					O=C1c2cc(C(F)(F)F)ncc2CN1c1ccc(N[C@H]2CC[C@H](Nc3ncc(C(F)(F)F)nn3)C2)nc1 [Example 152, 6-(Trifluoromethyl)-2-(6-(((1S,3S)-3-((6-(trifluoromethyl)-1,2,4-triazin-3-yl)amino)cyclopentyl)amino)pyridin-3-yl)-2,3-dihydro-1H-pyrrolo[3,4-c]pyridin-1-one]
2400 nM		2 h	50800 ng·h/mL	6.5 h	8.1 h	5930 ng/mL					O=C1c2ncccc2CN1c1ccc(N[C@H]2CC[C@H](Nc3ncc(OC(F)(F)F)cn3)C2)nc1 [Example 142, 6-(6-(((1S,3S)-3-((5-(trifluoromethoxy)pyrimidin-2-yl)amino)cyclopentyl)amino)pyridin-3-yl)-5,6-dihydro-7H-pyrrolo[3,4-b]pyridin-7-one]
1100 nM		0.25 h	36800 ng·h/mL	6.7 h	6.2 h	7530 ng/mL					O=C1c2cccnc2CN1c1ccc(N[C@H]2CC[C@H](Nc3ncc(C(F)(F)F)cn3)C2)nc1 [Example 133, 6-(6-(((1S,3S)-3-((5-(trifluoromethyl)pyrimidin-2-yl)amino)cyclopentyl)amino)-3-yl)-6,7-dihydro-5H-pyrrolo[3,4-b]pyridin-5-one]
2600 nM		1 h	42500 ng·h/mL	5.1 h	7.2 h	4060 ng/mL					Cc1cc2c(cn1)CN(c1ccc(N[C@H]3CC[C@H](Nc4ncc(OC(F)F)cn4)C3)nc1)C2=O [Example 116, 2-(6-(((1S,3S)-3-((5-(difluoromethoxy)pyrimidin-2-yl)amino)cyclopentyl)amino)-3-yl)-6-methyl-2,3-dihydro-1H-pyrrolo[3,4-c]pyridin-1-one]
	2.9 nM										CC1(C)c2cccnc2C(=O)N1c1ccc(N[C@H]2CC[C@H](Nc3ncc(OC(F)F)cn3)C2)nc1 [Example 93, 6-(6-(((1S,3S)-3-((5-(difluoromethoxy)pyrimidin-2-yl)amino)cyclopentyl)amino)pyridin-3-yl)-5,5-dimethyl-5,6-dihydro-7H-pyrrolo[3,4-b]pyridin-7-one]
	2.5 nM										CC1(C)c2cccnc2C(=O)N1c1ccc(N[C@H]2CC[C@H](Nc3ncc(C(F)(F)F)nn3)C2)nc1 [Example 146, 5,5-Dimethyl-6-(6-(((1S,3S)-3-((6-(trifluoromethyl)-1,2,4-triazin-3-yl)amino)cyclopentyl)amino)pyridin-3-yl)-5,6-dihydro-7H-pyrrolo[3,4-b]pyridin-7-one]
	2.7 nM										O=c1ccccn1-c1ccc(N[C@H]2CC[C@H](Nc3nc4cc(Cl)ccn4n3)C2)nc1 [Example 112, 6′-(((1S,3S)-3-((7-chloro-[1,2,4]triazolo[1,5-a]pyridin-2-yl)amino)cyclopentyl)amino)-2H-[1,3′-bipyridinyl]-2-one]
